Test results as given in ChEMBL document CHEMBL4334511, “Trivirensols: Selectively Bacteriostatic Sesquiterpene Trimers from the Australian Termite Nest-Derived Fungus Trichoderma virens CMB-TN16” (J Nat Prod, 2019).
Active and inactive are the calls of the source. No cut-off for these calls is given here.

Experiments:
Enterococcus faecalis [1] = assay: Antibacterial activity against vancomycin-resistant Enterococcus faecalis AUS-RBWH-VRE-01 assessed as colony formation unit at 30 uM incubated for 24 hrs by time kill assay; type: functional
[2] = Prodrug conversion in vancomycin-resistant Enterococcus faecalis AUS-RBWH-VRE-01 assessed as hydrolysis product butenolide formation at 30 uM incubated for 24 hrs by UHPLC-DAD-ESIMS analysis; type: ADME
Staphylococcus aureus [3] = assay: Antibacterial activity against methicillin-resistant Staphylococcus aureus AUS-RBWH-MRSA-02 assessed as reduction in […] growth at 0.01 to 30 uM incubated for 24 hrs by spectrophotometry based broth microdilution assay; type: functional, organism-based
Klebsiella pneumoniae [4] = assay: Antibacterial activity against NDM-producing Klebsiella pneumoniae SA-Rd-KAMC-037 assessed as reduction in […] growth at 0.01 to 30 uM incubated for 24 hrs by spectrophotometry based broth microdilution assay; type: functional, organism-based
Staphylococcus aureus [5] = assay: Antibacterial activity against Staphylococcus aureus ATCC 9144 assessed as reduction in […] growth at 0.01 to 30 uM incubated for 24 hrs by spectrophotometry based broth microdilution assay; type: functional, organism-based
SW-620 = assay: Cytotoxicity against human SW620 cells assessed as reduction in cell viability upto 30 uM incubated for 48 hrs by MTT assay; type: cell-based; details: sw-620, 48 h
Streptococcus pyogenes = assay: Antibacterial activity against Streptococcus pyogenes ATCC 12344 assessed as reduction in […] growth at 0.01 to 30 uM incubated for 24 hrs by spectrophotometry based broth microdilution assay; type: functional, organism-based
Pseudomonas aeruginosa [6] = assay: Antibacterial activity against IMP producing Pseudomonas aeruginosa UAE-DBI-ZMH-91 assessed as reduction in […] growth at 0.01 to 30 uM incubated for 24 hrs by spectrophotometry based broth microdilution assay; type: functional, organism-based
NCI-H460 = assay: Cytotoxicity against human NCI-H460 cells assessed as reduction in cell viability upto 30 uM incubated for 48 hrs by MTT assay; type: cell-based; details: nci-h460, 48 h
Acinetobacter baumannii = assay: Antibacterial activity against OXA-23-producing Acinetobacter baumannii SA-Rd-KAMC-083 assessed as reduction in […] growth at 0.01 to 30 uM incubated for 24 hrs by spectrophotometry based broth microdilution assay; type: functional, organism-based
Pseudomonas aeruginosa [7] = assay: Antibacterial activity against VIM producing Pseudomonas aeruginosa SA-EP-KFUH-40 assessed as reduction in […] growth at 0.01 to 30 uM incubated for 24 hrs by spectrophotometry based broth microdilution assay; type: functional, organism-based
Klebsiella pneumoniae [8] = assay: Antibacterial activity against OXA-48-producing Klebsiella pneumoniae SA-Rd-KAMC-014 assessed as reduction in […] growth at 0.01 to 30 uM incubated for 24 hrs by spectrophotometry based broth microdilution assay; type: functional, organism-based
Enterococcus faecalis [9] = assay: Antibacterial activity against vancomycin-resistant Enterococcus faecalis AUS-RBWH-VRE-01 assessed as fold reduction in growth by measuring colony formation unit at 30 uM incubated for 24 hrs by time kill assay; type: functional
Escherichia coli [10] = assay: Antibacterial activity against Escherichia coli KUW-kw-AmH-11 assessed as reduction in […] growth at 0.01 to 30 uM incubated for 24 hrs by spectrophotometry based broth microdilution assay; type: functional, organism-based
[11] = Prodrug conversion in vancomycin-resistant Enterococcus faecalis AUS-RBWH-VRE-01 assessed as hydrolysis product divirensol B formation at 30 uM incubated for 24 hrs by UHPLC-DAD-ESIMS analysis; type: ADME
Candida albicans = assay: Antifungal activity against Candida albicans ATCC 90028 assessed as reduction in fungal growth at 0.01 to 30 uM incubated for 24 hrs by spectrophotometry based broth microdilution assay; type: functional, organism-based
Escherichia coli [12] = assay: Antibacterial activity against Escherichia coli ATCC 11775 assessed as reduction in […] growth at 0.01 to 30 uM incubated for 24 hrs by spectrophotometry based broth microdilution assay; type: functional, organism-based
Bacillus subtilis = assay: Antibacterial activity against Bacillus subtilis ATCC 6633 assessed as reduction in […] growth at 0.01 to 30 uM incubated for 24 hrs by spectrophotometry based broth microdilution assay; type: functional, organism-based
Enterococcus faecalis [13] = assay: Antibacterial activity against vancomycin-resistant Enterococcus faecalis AUS-RBWH-VRE-01 assessed as reduction in […] growth incubated for 24 hrs by spectrophotometry based broth microdilution assay; type: functional, organism-based; details: Enterococcus faecalis, AUS-RBWH-VRE-01, 24 h; read-out: IC50
[14] = Prodrug conversion in vancomycin-resistant Enterococcus faecalis AUS-RBWH-VRE-01 assessed as hydrolysis product trivirensol B formation at 30 uM incubated for 24 hrs by UHPLC-DAD-ESIMS analysis; type: ADME
[15] = Prodrug conversion in vancomycin-resistant Enterococcus faecalis AUS-RBWH-VRE-01 assessed as hydrolysis product butenolide formation at 30 uM incubated for 3-6 hrs by UHPLC-DAD-ESIMS analysis; type: ADME

Row | Compound | Drug metabolism [2] | Activity (Staphylococcus aureus [3]) | Activity (Klebsiella pneumoniae [4]) | Activity (Staphylococcus aureus [5]) | Activity (SW-620) | Activity (Streptococcus pyogenes) | Activity (Pseudomonas aeruginosa [6]) | Activity (NCI-H460) | Activity (Acinetobacter baumannii) | Activity (Pseudomonas aeruginosa [7]) | Activity (Klebsiella pneumoniae [8]) | Activity (Escherichia coli [10]) | Activity (Candida albicans) | Activity (Escherichia coli [12]) | Activity (Bacillus subtilis) | IC50 (Enterococcus faecalis [13]) [µM] | fold change (FC) (Enterococcus faecalis [9]) | other results
1 | CCCCCCCCCC(=O)N[C@@H](Cc1c[nH]c2ccccc12)C(=O)N[C@H](CC(N)=O)C(=O)N[C@@H](CC(=O)O)C(=O)N[C@@H]1C(=O)NCC(=O)N[C@@H](CCCN)C(=O)N[C@@H](CC(=O)O)C(=O)N[C@H](C)C(=O)N[C@@H](CC(=O)O)C(=O)NCC(=O)N[C@H](CO)C(=O)N[C@@H]([C@H](C)CC(=O)O)C(=O)N[C@@H](CC(=O)c2ccccc2N)C(=O)O[C@@H]1C | – | – | – | – | – | – | – | – | – | – | – | – | – | – | – | – | – | Activity (Enterococcus faecalis [1]): 50 CFU/ml
2 | CC(C)[C@H]1CC[C@@](O)(COC(=O)/C(=C/[C@@H]2[C@@H](C(C)C)CC[C@@]3(O)COC(=O)[C@@H]23)CO)[C@H]2C(=O)OCC(C(=O)O)=C[C@H]12 | Metabolite_Notdetected | inactive | inactive | inactive | Non-Toxic | inactive | inactive | Non-Toxic | inactive | inactive | inactive | inactive | inactive | inactive | inactive | – | – | Activity (Enterococcus faecalis [9]): Active; Drug metabolism [11]: Metabolite_Detected
3 | CC(C)[C@H]1CC[C@@](O)(COC(=O)C2=C[C@@H]3[C@@H](C(C)C)CC[C@@](O)(COC(=O)/C(=C/[C@@H]4[C@@H](C(C)C)CC[C@@]5(O)COC(=O)[C@@H]45)CO)[C@H]3C(=O)OC2)[C@H]2C(=O)OCC(C(=O)O)=C[C@H]12 | Metabolite_Notdetected | inactive | inactive | inactive | Non-Toxic | inactive | inactive | Non-Toxic | inactive | inactive | inactive | inactive | inactive | inactive | inactive | 8 | 10000 | Drug metabolism [14]: Metabolite_Detected
4 | CC(C)[C@H]1CC[C@@](O)(COC(=O)/C(=C/[C@@H]2[C@@H](C(C)C)CC[C@@]3(O)COC(=O)[C@@H]23)CO)[C@@H](C(=O)O)[C@@H]1/C=C(\CO)C(=O)O[C@@]12CC[C@H](C(C)C)[C@@H](/C=C(\CO)C(=O)O)[C@@H]1C(=O)OC2 | Metabolite_Notdetected | inactive | inactive | inactive | Non-Toxic | inactive | inactive | Non-Toxic | inactive | inactive | inactive | inactive | inactive | inactive | inactive | 10 | 1000 | Drug metabolism [15]: Metabolite_Detected
